The text below walks through data of paper PMC6397705 (Molecular cancer therapeutics, 2019).

pEC50, pIC50: −log10 of the molar value.

The subject of data set [1] is PPP1C/PPP2AC/PPP5C/ PPP6C. The note with it: cited from earlier work.
Another data set deals with PP2A. As to conditions: cited from earlier work.
Data set [2] has as its target T1, PP2AC (Bos taurus, UniProt P67774). Nature of the data set: DiFMUP-based phosphatase inhibition assay. It counts as biochemical, bovine.
Data set [3] has as its target T2, PPP5C (Homo sapiens, UniProt P53041). Nature of the data set: Phosphopeptide. Type of data set: biochemical.
The nature of another data set: in vitro. It counts as cell-based. As to conditions: human, EC50, cytotoxicity in U-937 cells, 72 hours, n=16.
The target in data set [4] is T2, PPP5C. Nature of the data set: [32P]-phosphohistone phosphatase assay. Type of data set: biochemical.
The test system of another data set is HEK-293 cells. Nature of the data set: Western analysis of ribosomal S6. The note with it: wild-type HEK-293 cells, 0–2 μM, 3 hours. It counts as cell-based, human.
The next data set deals with PP2AC versus PPP5C. Nature of the data set: Selectivity over the three substrate assays. As to conditions: with all three substrates. It counts as biochemical.
Data set [5] deals with T1, PP2AC. Nature of the data set: [32P]-phosphohistone phosphatase assay. Type of data set: biochemical, bovine.
For data set [6], the target named is T1, PP2AC. Nature of the data set: Phosphopeptide. It counts as biochemical, bovine.
The subject of the next data set is solid tumor patients. As to conditions: of 46 solid tumor patients, Phase I; cited from earlier work.

T1 sequence (P67774 whole entry): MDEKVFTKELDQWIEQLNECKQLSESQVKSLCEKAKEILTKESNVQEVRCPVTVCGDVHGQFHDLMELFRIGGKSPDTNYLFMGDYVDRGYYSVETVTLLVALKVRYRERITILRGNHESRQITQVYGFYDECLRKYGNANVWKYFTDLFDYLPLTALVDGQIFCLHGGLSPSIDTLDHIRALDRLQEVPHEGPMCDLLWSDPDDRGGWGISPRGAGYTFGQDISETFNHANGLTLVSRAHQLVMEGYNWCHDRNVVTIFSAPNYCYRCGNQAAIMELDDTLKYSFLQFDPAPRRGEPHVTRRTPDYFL
T2 sequence (P53041 whole entry): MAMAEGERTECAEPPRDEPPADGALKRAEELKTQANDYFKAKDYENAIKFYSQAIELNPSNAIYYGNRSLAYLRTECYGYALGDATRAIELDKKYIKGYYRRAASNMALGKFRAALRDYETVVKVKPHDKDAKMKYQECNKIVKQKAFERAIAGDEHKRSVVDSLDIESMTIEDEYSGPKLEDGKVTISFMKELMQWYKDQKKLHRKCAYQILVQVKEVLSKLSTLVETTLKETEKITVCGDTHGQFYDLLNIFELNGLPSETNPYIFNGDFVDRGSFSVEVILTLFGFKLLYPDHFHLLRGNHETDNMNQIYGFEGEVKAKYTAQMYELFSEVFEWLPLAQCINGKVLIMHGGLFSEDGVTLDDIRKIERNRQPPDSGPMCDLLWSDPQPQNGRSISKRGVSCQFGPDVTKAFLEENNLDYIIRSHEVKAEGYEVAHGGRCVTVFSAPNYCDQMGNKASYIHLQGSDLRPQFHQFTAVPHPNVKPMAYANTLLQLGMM

`C[C@@]12C(=O)OC(=O)[C@]1(C)[C@H]1CC[C@@H]2O1` [cantharidin]: the “affinity for ser/thr phosphatases 1, 2A, 5, and 6” value in data set [1] (catalytic inhibitor) is “submicromolar to low micromolar”.

For the compound “4-(3-carboxy-7-oxa-bicyclo [2.2.1] heptane-2-carbonyl)piperazine-1-carboxylic acid tert- butyl ester [LB-102]”, the “selectivity for PP2A” value with PP2A is listed as > 10,000 fold.

Regarding Microcystin, in data set [1], the pIC50 is over 8.70.

With `CN1CCN(C(=O)C2C3CCC(O3)C2C(=O)O)CC1` (centres unmarked) [LB-100, 3-(4-methylpiperazine-1-carbonyl)-7-oxabicyclo[2.2.1]heptane-2-carboxylic acid], the pIC50 against PP2AC [2] was 6.41; at PPP5C [3] it was 5.18; against PPP5C [4], 5.31; on PP2AC [5] it was 6.19; against PP2AC [6] it was 5.90. Moreover, the pEC50 is 4.93 in “in vitro” (LB-100 alone); 5.26 in “in vitro” (LB-100 and 500 nM dexamethasone). In addition, the “phosphorylation of ribosomal protein S6 (Ser235/236)” value with HEK-293 cells is “induced in the wild-type HEK-293 cells by LB-100 in a dose-dependent manner”. In addition, in the data set with PP2AC versus PPP5C, the “selectivity for PP2AC versus PPP5C” value is reported as 4–7 fold.

Regarding nodularin, the pIC50 in data set [1] was over 8.70.

Take `C[C@@](O)(/C=C/[C@H]1CC=CC(=O)O1)[C@@H](C[C@@H](O)\C=C/C=C\C=C\CO)OP(=O)(O)O` [fostriecin]: the “disease stability, number of patients” value in the data set with solid tumor patients is reported as 16.
